We go through one compound from patent US9034895B2, “Composition and methods for treating glioblastoma” (University of Washington Through its Center for …, priority 2010, dated 2015).

This assay relates to U251, A172 and GBM8. Nature of the assay: Toxic profile in human astrocytoma cell lines. The class given is cell-based. To be noted: range over the three cell lines (FIG. 4), read-out: potency at killing human astrocytoma cell lines U251, A172 and GBM8. How it is done:
Cells were plated media supplemented with 10% serum in 96-well plates (10^4 cells per wellI; 0.1 ml per well). Once they reached ˜70% confluence, they were rinsed with PBS and kept for an additional 24 hrs in media supplemented with 1% serum, at which time drugs or vehicle (DMSO, 0.1%, prepared in 10 μl serum-free media) were directly added to each well. After 3 days, cell viability was assessed using the Cell Proliferation Reagent WST-1 (Roche, Indianapolis, Ind.). Briefly, WST-1 reagent (10 μl) was added to each well for 3 hrs at 37° C. with 5% CO2 and WST-1 products were read at 450 nm using Packard SpectraCount™.
JWH-451 was tested for toxicity in cells expressing GPR124.

Consider `CCn1c(C)c(C(=O)c2ccc(C)c3ccccc23)c2ccccc21` [JWH-451, 1-Ethyl-2-methyl-3-(4-methyl-1-napthoyl)indole], for which the EC50 lay within 2 to 4 µM.
